Results taken from patent US6737383B1, “Herbicidal oxadiazolidines” (priority 1999, dated 2004).

How the values were obtained:
wheat = experiment: Test B pre/postemergence wheat; assay type: in vivo, Triticum aestivum; conditions: for Wheat plant response rating: Postemergence; for Plant response rating, Wheat: Preemergence
Method in brief: (§1)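 Herbicidal effect was estimated by eye on a ten-point control scale after plants spent twelve to sixteen days in a greenhouse following soil or foliar treatment. Foliar sprays targeted plants at one to four leaves; all doses were formulated in a non-phytotoxic solvent with surfactant.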

sugar beet = experiment: Test B pre/postemergence sugar beet; assay type: in vivo, Beta vulgaris; conditions: for Sugarbeets plant response rating: Postemergence; for Plant response rating, Sugarbeets: Preemergence
Method in brief: as §1

rape = experiment: Test B pre/postemergence rape; assay type: in vivo, Brassica napus; conditions: for Rape plant response rating: Postemergence; for Plant response rating, Rape: Preemergence
Method in brief: as §1

pigweed = experiment: Test B pre/postemergence pigweed; assay type: in vivo, Amaranthus retroflexus; conditions: for Redroot pigweed plant response rating: Postemergence; for Plant response rating, Redroot pigweed: Preemergence
Method in brief: as §1

surinam grass = experiment: Test B pre/postemergence surinam grass; assay type: in vivo, Brachiaria decumbens; conditions: for B. signalgrass plant response rating: Postemergence; for Plant response rating, B. signalgrass: Preemergence
Method in brief: as §1

bedstraw = experiment: Test B pre/postemergence bedstraw; assay type: in vivo, Galium aparine; conditions: Postemergence
Method in brief: as §1

giant foxtail = experiment: Test B pre/postemergence giant foxtail; assay type: in vivo, Setaria faberii; conditions: for Giant foxtail plant response rating: Postemergence; for Plant response rating, Giant foxtail: Preemergence
Method in brief: as §1

crabgrass = experiment: Test B pre/postemergence crabgrass; assay type: in vivo, Digitaria sanguinalis; conditions: for Crabgrass plant response rating: Postemergence; for Plant response rating, Crabgrass: Preemergence
Method in brief: as §1

purple nutsedge = experiment: Test B pre/postemergence purple nutsedge; assay type: in vivo, Cyperus rotundus; conditions: for Nutsedge plant response rating: Postemergence; for Plant response rating, Nutsedge: Preemergence
Method in brief: as §1

cocklebur = experiment: Test B pre/postemergence cocklebur; assay type: in vivo, Xanthium strumarium; conditions: for Cocklebur plant response rating: Postemergence; for Plant response rating, Cocklebur: Preemergence
Method in brief: as §1

soybean = experiment: Test B pre/postemergence soybean; assay type: in vivo, Glycine max; conditions: for Soybean plant response rating: Postemergence; for Plant response rating, Soybean: Preemergence
Method in brief: as §1

duck salad = experiment: Test B flood test duck salad; assay type: in vivo, Heteranthera limosa
Method in brief: (§2)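 Read-out is a visual response score from 0 (no effect) to 10 (complete control), assigned by comparison with untreated controls. Treatment was applied at the 2-leaf stage, and plants stayed in the greenhouse for twelve to sixteen days before scoring.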

morningglory = experiment: Test B pre/postemergence morningglory; assay type: in vivo, Ipomoea hederacea; conditions: for Morningglory plant response rating: Postemergence; for Plant response rating, Morningglory: Preemergence
Method in brief: as §1

wild oat = experiment: Test B pre/postemergence wild oat; assay type: in vivo, Avena fatua; conditions: for Wild oats plant response rating: Postemergence; for Plant response rating, Wild oats: Preemergence
Method in brief: as §1

smallflower flatsedge = experiment: Test B flood test smallflower flatsedge; assay type: in vivo, Cyperus difformis
Method in brief: as §2

bamyardgrass = experiment: Test B flood test barnyardgrass; assay type: in vivo, Echinochloa crus-galli
Method in brief: as §2

corn = experiment: Test B pre/postemergence corn; assay type: in vivo, Zea mays; conditions: for Corn plant response rating: Postemergence; for Plant response rating, Corn: Preemergence
Method in brief: as §1

velvetleaf = experiment: Test B pre/postemergence velvetleaf; assay type: in vivo, Abutilon theophrasti; conditions: for Velvetleaf plant response rating: Postemergence; for Plant response rating, Velvetleaf: Preemergence
Method in brief: as §1

blackgrass = experiment: Test B pre/postemergence blackgrass; assay type: in vivo, Alopecurus myosuroides; conditions: for Blackgrass plant response rating: Postemergence; for Plant response rating, Blackgrass: Preemergence
Method in brief: as §1

rice = experiment: Test B flood test rice; assay type: in vivo, Oryza sativa
Method in brief: as §2

[1] = Rate 125 g/ha, scale of 0 to 10 where 0 is no effect and 10 is complete control
[2] = Rate 500 g/ha, scale of 0 to 10 where 0 is no effect and 10 is complete control
[3] = Rate 250 g/ha, scale 0 to 10, 0 is no effect, 10 is complete control
[4] = Rate 500 g/ha, scale 0 to 10, 0 is no effect, 10 is complete control
[5] = Rate 1000 g/ha, scale 0 to 10 (0 no effect, 10 complete control)
[6] = Rate 250 g/ha, scale 0 to 10 (0 no effect, 10 complete control)
[7] = Pre-emergence, Rate 1000 g/ha, scale 0 to 10 (0 no effect, 10 complete control)
[8] = Rate 125 g/ha, under heading Pre-emergence, flood test species, visual evaluation after twelve to sixteen days
[9] = Rate 250 g/ha, Pre-emergence (flood test species), scale 0 to 10, 0 is no effect, 10 is complete control
[10] = Rate 500 g/ha, Pre-emergence section of Table B, 0 to 10 scale (0 no effect, 10 complete control)

COC(=O)C(CCO)n1c(=O)on(C(=O)N(c2ccccc2)C(C)C)c1=O (centres unmarked) [Compound 678]
5: Redroot pigweed plant response rating (pigweed; [5]) | Plant response rating, Velvetleaf (velvetleaf; [5])
8: Morningglory plant response rating (morningglory; [4])
6: Giant foxtail plant response rating (giant foxtail; [4]) | Plant response rating, Giant foxtail (giant foxtail; [5]) | Crabgrass plant response rating (crabgrass; [4]) | Morningglory plant response rating (morningglory; [1]) | Morningglory plant response rating (morningglory; [3]) | Blackgrass plant response rating (blackgrass; [5])
2: Rape plant response rating (rape; [5]) | Redroot pigweed plant response rating (pigweed; [4]) | B. signalgrass plant response rating (surinam grass; [4]) | Cocklebur plant response rating (cocklebur; [4]) | Soybean plant response rating (soybean; [3]) | Soybean plant response rating (soybean; [4]) | Plant response rating, Velvetleaf (velvetleaf; [2])
0: Wheat plant response rating (wheat; [1]) | Plant response rating, Wheat (wheat; [1]) | Plant response rating, Wheat (wheat; [2]) | Wheat plant response rating (wheat; [3]) | Wheat plant response rating (wheat; [4]) | Plant response rating, Wheat (wheat; [5]) | Sugarbeets plant response rating (sugar beet; [1]) | Plant response rating, Sugarbeets (sugar beet; [1]) | Plant response rating, Sugarbeets (sugar beet; [2]) | Sugarbeets plant response rating (sugar beet; [3]) | Sugarbeets plant response rating (sugar beet; [4]) | Plant response rating, Sugarbeets (sugar beet; [5]) | Rape plant response rating (rape; [1]) | Plant response rating, Rape (rape; [1]) | Plant response rating, Rape (rape; [2]) | Rape plant response rating (rape; [3]) | Rape plant response rating (rape; [4]) | Plant response rating, Rape (rape; [5]) | Redroot pigweed plant response rating (pigweed; [1]) | Plant response rating, Redroot pigweed (pigweed; [1]) | Plant response rating, Redroot pigweed (pigweed; [2]) | Redroot pigweed plant response rating (pigweed; [3]) | B. signalgrass plant response rating (surinam grass; [1]) | Plant response rating, B. signalgrass (surinam grass; [1]) | Plant response rating, B. signalgrass (surinam grass; [6]) | Plant response rating, B. signalgrass (surinam grass; [2]) | B. signalgrass plant response rating (surinam grass; [3]) | Plant response rating, B. signalgrass (surinam grass; [5]) | Bedstraw plant response rating (bedstraw; [1]) | Bedstraw plant response rating (bedstraw; [5]) | Bedstraw plant response rating (bedstraw; [3]) | Bedstraw plant response rating (bedstraw; [4]) | Giant foxtail plant response rating (giant foxtail; [1]) | Plant response rating, Giant foxtail (giant foxtail; [1]) | Crabgrass plant response rating (crabgrass; [1]) | Plant response rating, Crabgrass (crabgrass; [1]) | Plant response rating, Crabgrass (crabgrass; [6]) | Crabgrass plant response rating (crabgrass; [3]) | Nutsedge plant response rating (purple nutsedge; [1]) | Plant response rating, Nutsedge (purple nutsedge; [1]) | Plant response rating, Nutsedge (purple nutsedge; [2]) | Nutsedge plant response rating (purple nutsedge; [3]) | Nutsedge plant response rating (purple nutsedge; [4]) | Plant response rating, Nutsedge (purple nutsedge; [5]) | Cocklebur plant response rating (cocklebur; [1]) | Plant response rating, Cocklebur (cocklebur; [1]) | Plant response rating, Cocklebur (cocklebur; [6]) | Plant response rating, Cocklebur (cocklebur; [2]) | Cocklebur plant response rating (cocklebur; [3]) | Plant response rating, Cocklebur (cocklebur; [5]) | Plant response rating, Soybean (soybean; [1]) | Plant response rating, Soybean (soybean; [2]) | Plant response rating, Soybean (soybean; [5]) | Ducksalad plant response rating (duck salad; [7]) | Ducksalad plant response rating (0 to 10 scale, 0 is no effect, 10 is complete control) (duck salad; [8]) | Ducksalad plant response rating (duck salad; [9]) | Ducksalad plant response rating (duck salad; [10]) | Plant response rating, Morningglory (morningglory; [1]) | Plant response rating, Morningglory (morningglory; [2]) | Wild oats plant response rating (wild oat; [1]) | Plant response rating, Wild oats (wild oat; [1]) | Plant response rating, Wild oats (wild oat; [2]) | Wild oats plant response rating (wild oat; [3]) | Wild oats plant response rating (wild oat; [4]) | Plant response rating, Wild oats (wild oat; [5]) | S. Flatsedge plant response rating (smallflower flatsedge; [7]) | S. Flatsedge plant response rating (0 to 10 scale, 0 is no effect, 10 is complete control) (smallflower flatsedge; [8]) | S. Flatsedge plant response rating (smallflower flatsedge; [9]) | S. Flatsedge plant response rating (smallflower flatsedge; [10]) | Barnyardgrass plant response rating (bamyardgrass; [7]) | Barnyardgrass plant response rating (0 to 10 scale, 0 is no effect, 10 is complete control) (bamyardgrass; [8]) | Barnyardgrass plant response rating (bamyardgrass; [9]) | Barnyardgrass plant response rating (bamyardgrass; [10]) | Corn plant response rating (corn; [1]) | Corn plant response rating (corn; [5]) | Plant response rating, Corn (corn; [1]) | Plant response rating, Corn (corn; [6]) | Plant response rating, Corn (corn; [2]) | Corn plant response rating (corn; [3]) | Corn plant response rating (corn; [4]) | Plant response rating, Corn (corn; [5]) | Velvetleaf plant response rating (velvetleaf; [1]) | Plant response rating, Velvetleaf (velvetleaf; [1]) | Velvetleaf plant response rating (velvetleaf; [3]) | Blackgrass plant response rating (blackgrass; [1]) | Plant response rating, Blackgrass (blackgrass; [1]) | Plant response rating, Blackgrass (blackgrass; [6]) | Plant response rating, Blackgrass (blackgrass; [2]) | Blackgrass plant response rating (blackgrass; [3]) | Rice plant response rating (rice; [7]) | Rice plant response rating (0 to 10 scale, 0 is no effect, 10 is complete control) (rice; [8]) | Rice plant response rating (rice; [9]) | Rice plant response rating (rice; [10])
3: Plant response rating, Crabgrass (crabgrass; [5]) | Cocklebur plant response rating (cocklebur; [5]) | Velvetleaf plant response rating (velvetleaf; [4]) | Blackgrass plant response rating (blackgrass; [4])
7: Giant foxtail plant response rating (giant foxtail; [5])
4: Plant response rating, Redroot pigweed (pigweed; [5]) | B. signalgrass plant response rating (surinam grass; [5]) | Plant response rating, Giant foxtail (giant foxtail; [2])
1: Giant foxtail plant response rating (giant foxtail; [3]) | Plant response rating, Crabgrass (crabgrass; [2]) | Soybean plant response rating (soybean; [1]) | Plant response rating, Morningglory (morningglory; [5]) | Plant response rating, Blackgrass (blackgrass; [5])
